Experimental data reported in PubChem BioAssay (NCI).
“And” between values parts separate entries of the source, which are not always exact repeats. Equal entries are not always repeated.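 Values below derive from 48-hour exposures of cells grown in 96-well plates, with endpoints linearly interpolated between the two concentrations bracketing the appropriate inhibition level. Here, GI50 denotes the concentration required for 50% inhibition of growth. TGI denotes the concentration required for complete inhibition of growth.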 Where a SMILES comes first, the peptide text is derived from it. [ ]: non-standard residue; d: D form. Aoe = N[C@@H](CCCCCC(=O)[C@@H]1CO1)C(=O)O

What was measured:
Test in all cases: NCI-60 cell line screen, 48 h
[1] = test system: 786-0 renal
[2] = test system: ACHN renal
[3] = test system: CAKI-1 renal
[4] = test system: CCRF-CEM leukemia
[5] = test system: COLO 205 colon
[6] = test system: DU-145 prostate
[7] = test system: HCC-2998 colon
[8] = test system: HCT-116 colon
[9] = test system: HCT-15 colon
[10] = test system: HOP-62 NSCLC
[11] = test system: HOP-92 NSCLC
[12] = test system: HS 578T breast
[13] = test system: IGROV1 ovarian
[14] = test system: K-562 leukemia
[15] = test system: KM12 colon
[16] = test system: LOX IMVI melanoma
[17] = test system: M14 melanoma
[18] = test system: MCF7 breast
[19] = test system: MDA-MB-231 breast
[20] = test system: MDA-MB-435
[21] = test system: MOLT-4 leukemia
[22] = test system: NCI-H23 lung
[23] = test system: NCI-H460 lung
[24] = test system: NCI/ADR-RES ovarian
[25] = test system: OVCAR-4 ovarian
[26] = test system: OVCAR-5 ovarian
[27] = test system: OVCAR-8 ovarian
[28] = test system: PC-3 prostate
[29] = test system: RPMI-8226 leukemia
[30] = test system: RXF 393 renal
[31] = test system: SF-268 CNS
[32] = test system: SF-295 CNS
[33] = test system: SF-539 CNS
[34] = test system: SK-MEL-28 melanoma
[35] = test system: SK-OV-3 ovarian
[36] = test system: SN12C renal
[37] = test system: SNB-19 CNS
[38] = test system: SNB-75 CNS
[39] = test system: SR leukemia
[40] = test system: SW-620 colon
[41] = test system: T-47D breast
[42] = test system: TK-10 renal
[43] = test system: UACC-257 melanoma
[44] = test system: A498 renal
[45] = test system: A549 NSCLC
[46] = test system: BT-549 breast
[47] = test system: EKVX NSCLC
[48] = test system: HL-60(TB) leukemia
[49] = test system: HT29 colon
[50] = test system: MALME-3M melanoma
[51] = test system: NCI-H226 lung
[52] = test system: NCI-H522 lung
[53] = test system: OVCAR-3 ovarian
[54] = test system: SK-MEL-2 melanoma
[55] = test system: SK-MEL-5 melanoma
[56] = test system: U251 CNS
[57] = test system: UACC-62 melanoma
[58] = test system: UO-31 renal

`COc1ccc(C(=O)c2cc(OC)c(OC)c(OC)c2)cc1/C=C/C(=O)c1ccc(OC)c(OC)c1` was tested, and the GI50 [1] was 4.71 µM, the TGI [1] was > 100 µM and the GI50 [2] was 1.32 µM. The TGI [2] was > 100 µM, the GI50 [3] was 0.829 µM and the TGI [3] was > 100 µM. The GI50 [4] was 0.465 µM, the TGI [4] was 13.3 µM and the GI50 [5] was 3.07 µM. The TGI [5] was > 100 µM, the GI50 [6] was 2.21 µM and the TGI [6] was > 100 µM. The GI50 [7] was 4.14 µM, the TGI [7] was > 100 µM and the GI50 [8] was 0.416 µM. For the same molecule, the TGI [8] was > 100 µM, the GI50 [9] was 0.428 µM and the TGI [9] was > 100 µM. The GI50 [10] was 34.1 µM, the TGI [10] was > 100 µM and the GI50 [11] was 1.69 µM. For the same molecule, the TGI [11] was 58 µM, the GI50 [12] was 11.1 µM and the TGI [12] was > 100 µM. The GI50 [13] was 3.08 µM, the TGI [13] was > 100 µM and the GI50 [14] was 0.4 µM. The TGI [14] was > 100 µM, the GI50 [15] was 1.42 µM and the TGI [15] was > 100 µM. The GI50 [16] was 0.559 µM, the TGI [16] was 4.75 µM and the GI50 [17] was 2.79 µM. For the same molecule, the TGI [17] was > 100 µM, the GI50 [18] was 0.418 µM and the TGI [18] was > 100 µM. For the same molecule, the GI50 [19] was 0.659 µM, the TGI [19] was > 100 µM and the GI50 [20] was 2.29 µM. For the same molecule, the TGI [20] was > 100 µM, the GI50 [21] was 0.669 µM and the TGI [21] was 17.4 µM. The GI50 [22] was 4.13 µM, the TGI [22] was > 100 µM and the GI50 [23] was 2.43 µM. For the same molecule, the TGI [23] was > 100 µM, the GI50 [24] was 0.466 µM and the TGI [24] was > 100 µM. The GI50 [25] was 1.95 µM, the TGI [25] was > 100 µM and the GI50 [26] was 3.67 µM. For the same molecule, the TGI [26] was > 100 µM, the GI50 [27] was 1.85 µM and the TGI [27] was > 100 µM. The GI50 [28] was 5.9 µM, the TGI [28] was > 100 µM and the GI50 [29] was 0.587 µM. The TGI [29] was 11.8 µM, the GI50 [30] was > 100 µM and the TGI [30] was > 100 µM. The GI50 [31] was 3 µM, the TGI [31] was > 100 µM and the GI50 [32] was 5.26 µM. For the same molecule, the TGI [32] was > 100 µM, the GI50 [33] was 3.08 µM and the TGI [33] was > 100 µM. The GI50 [34] was 4.59 µM, the TGI [34] was > 100 µM and the GI50 [35] was 5.76 µM. The TGI [35] was > 100 µM, the GI50 [36] was 1.65 µM and the TGI [36] was > 100 µM. For the same molecule, the GI50 [37] was 2.7 µM, the TGI [37] was > 100 µM and the GI50 [38] was 3.86 µM. For the same molecule, the TGI [38] was > 100 µM, the GI50 [39] was 0.29 µM and the TGI [39] was 10.2 µM. The GI50 [40] was 0.321 µM, the TGI [40] was > 100 µM and the GI50 [41] was 2.76 µM. The TGI [41] was > 100 µM, the GI50 [42] was 4.16 µM and the TGI [42] was > 100 µM. The GI50 [43] was 3.19 µM and the TGI [43] was > 100 µM.

In the case of `CCN1C(=O)N(CC)C2Nn3c(s/c(=C\c4ccccc4Br)c3=O)=NC21` (stereo unspecified), the GI50 [1] is reported as 3.18 µM, the TGI [1] is reported as > 100 µM and the GI50 [44] is reported as 0.886 µM. For the same molecule, the TGI [44] was 4.08 µM, the GI50 [45] was 1.23 µM and the TGI [45] was > 100 µM. For the same molecule, the GI50 [2] was 1.33 µM, the TGI [2] was > 100 µM and the GI50 [46] was 3.2 µM. It also gave a TGI [46] of 17.4 µM, a GI50 [3] of 1.75 µM and a TGI [3] of 38.2 µM. For the same molecule, the GI50 [4] was 1.32 µM, the TGI [4] was > 100 µM and the GI50 [47] was 2.3 µM. For the same molecule, the TGI [47] was > 100 µM, the GI50 [7] was 2.4 µM and the GI50 [8] was 0.497 µM. The TGI [8] was > 100 µM, the GI50 [9] was 1.48 µM and the TGI [9] was > 100 µM. For the same molecule, the GI50 [48] was 1.28 µM, the TGI [48] was 3.19 µM and the GI50 [10] was 2.81 µM. For the same molecule, the TGI [10] was > 100 µM, the GI50 [11] was 4.14 µM and the TGI [11] was 80.8 µM. It also gave a GI50 [49] of 0.558 µM, a TGI [49] of 5.73 µM and a GI50 [13] of 2.77 µM. For the same molecule, the TGI [13] was > 100 µM, the GI50 [14] was 0.515 µM and the TGI [14] was > 100 µM. For the same molecule, the GI50 [15] was 0.501 µM, the TGI [15] was 6.13 µM and the GI50 [16] was 2.43 µM. The TGI [16] was 30.6 µM, the GI50 [50] was 8.08 µM and the TGI [50] was 78.1 µM. For the same molecule, the GI50 [18] was 1.78 µM, the TGI [18] was > 100 µM and the GI50 [19] was 1.89 µM. It also gave a TGI [19] of 8.62 µM, a GI50 [21] of 2.28 µM and a TGI [21] of 23.2 µM. For the same molecule, the GI50 [51] was 6.31 µM, the TGI [51] was > 100 µM and the GI50 [22] was 2.7 µM. For the same molecule, the TGI [22] was > 100 µM, the GI50 [23] was 0.804 µM and the TGI [23] was 10.5 µM. For the same molecule, the GI50 [52] was 1.26 µM, the TGI [52] was 4.15 µM and the GI50 [24] was 1.74 µM. The TGI [24] was 43.7 µM, the GI50 [53] was 1.05 µM and the TGI [53] was 5.02 µM. The GI50 [25] was 2.29 µM, the TGI [25] was > 100 µM and the GI50 [26] was 2.01 µM. The TGI [26] was > 100 µM, the GI50 [27] was 1.61 µM and the TGI [27] was 7.85 µM. For the same molecule, the GI50 [28] was 1.86 µM, the TGI [28] was > 100 µM and the GI50 [29] was 1.79 µM. For the same molecule, the TGI [29] was 15.2 µM, the GI50 [30] was 1.09 µM and the TGI [30] was 6.91 µM. The GI50 [31] was 2.54 µM, the TGI [31] was 29 µM and the GI50 [32] was 0.691 µM. The TGI [32] was 7.75 µM, the GI50 [33] was 0.889 µM and the TGI [33] was 3.08 µM. For the same molecule, the GI50 [54] was 3.55 µM, the TGI [54] was 25.6 µM and the GI50 [34] was 2.23 µM. The TGI [34] was 69.6 µM, the GI50 [55] was 1.71 µM and the TGI [55] was 5.64 µM. It also gave a GI50 [35] of 2.15 µM, a TGI [35] of 7.7 µM and a GI50 [36] of 3.17 µM. The TGI [36] was 27.8 µM, the GI50 [37] was 3.18 µM and the TGI [37] was > 100 µM. It also gave a GI50 [38] of 0.797 µM, a TGI [38] of 8.3 µM and a GI50 [39] of 0.573 µM. For the same molecule, the TGI [39] was 8.3 µM, the GI50 [40] was 1.27 µM and the TGI [40] was > 100 µM. For the same molecule, the GI50 [41] was 13.2 µM, the TGI [41] was > 100 µM and the GI50 [42] was 9.34 µM. For the same molecule, the TGI [42] was > 100 µM, the GI50 [56] was 0.676 µM and the TGI [56] was 19.4 µM. The GI50 [43] was 12.9 µM, the TGI [43] was > 100 µM and the GI50 [57] was 2.18 µM. For the same molecule, the TGI [57] was 31.1 µM, the GI50 [58] was 2 µM and the TGI [58] was > 100 µM.

With `O=C1N[C@@H](Cc2ccccc2)C(=O)N2CCC[C@@H]2C(=O)N[C@@H](CCCCCC(=O)[C@@H]2CO2)C(=O)N[C@H]1Cc1ccccc1` (cyclo(FF[dP][Aoe])) the TGI [11] was 1.6 µM, the TGI [51] was > 2.13 µM and the GI50 [22] was 0.00426 µM and 0.00689 µM. The TGI [22] was 2.12 µM and 0.458 µM and the GI50 [43] was 0.000732 µM and 0.00214 µM.

In the case of `CCCCCCCCCCCCC[C@H](O)C[C@H](O)[C@H](C)N`, the GI50 [44] is reported as 6.19 µM, the TGI [44] is reported as 47.1 µM and the GI50 [2] is reported as 1.86 µM. It also gave a TGI [2] of 3.3 µM, a GI50 [9] of 1.65 µM and a TGI [9] of 3.11 µM. For the same molecule, the GI50 [23] was 1.63 µM, the TGI [23] was 3.87 µM and the GI50 [25] was 2.25 µM. It also gave a TGI [25] of 5.52 µM, a GI50 [26] of 1.95 µM and a TGI [26] of 3.42 µM. The GI50 [27] was 3.49 µM, the TGI [27] was > 100 µM and the GI50 [35] was 14.6 µM. The TGI [35] was 40.9 µM, the GI50 [36] was 1.92 µM and the TGI [36] was 3.38 µM. For the same molecule, the GI50 [57] was 1.87 µM and the TGI [57] was 3.27 µM.
